Laboratory results from ChEMBL document CHEMBL1833951, “Diterpenes from the Hainan soft coral Lobophytum cristatum Tixier-Durivault” (J Nat Prod, 2011).

Columns and labels:
A549 = assay: Cytotoxicity against human A549 cells by MTT assay; assay type: functional, cell-based
HCT-116 = assay: Cytotoxicity against human HCT116 cells by SRB assay; assay type: functional, cell-based

SMILES | IC50 (A549) | IC50 (HCT-116)
C=C(CCC=C(C)C)[C@H]1CC[C@]2(C)CCCC(=C)[C@H]2C1 [LOBOPHYTUMIN C] | 35.7 µM | 37.1 µM
C=C(CCC=C(C)C)[C@H]1CC[C@@]2(C)CCC=C(C)[C@@H]2C1 [LOBOPHYTUMIN D] | 36.7 µM | 35.7 µM
COC(=O)Nc1nc2cc(C(=O)c3cccs3)ccc2[nH]1 [NOCODAZOLE] | 0.087 µM | 0.173 µM
